In EP1728511A1, “New use of phenethicillin and salts thereof” (Faust Pharmaceuticals, priority 2005, dated 2006):

Tested on: SK-N-SH neuroblastoma cell
Experiment: Serum deprivation assay, neuroblastoma cell survival (neutral red incorporation)
Format: cell-based, Human
Conditions: dose range of 1-10µM, SK-N-SH cells
Source text: Serum provides survival factors (ex: growth factors) necessary to cell viability in culture conditions. According to the serum concentration it is possible to modulate the state of the cell viability. Total suppression of these components triggers cell death via apoptosis or necrosis. Causes of cell death could be oxidative stress and free radical accumulation, mitochondrial dysfunction or imbalanced calcium homeostasis. Human SK-N-SH is a neuronal cell line usually cultured in serum containing medium. Serum withdrawal in the cell culture condition provides a cell-based assay allowing the study of neuroprotection and the screening for drugs capable of protecting cells from death or delaying cell death (Ba et al. (2003) The establishment of a reliable cytotoxic system with SK-N-SH neuroblastoma cell culture. J Neurosci. Methods 123:11-22, Green et al. (1997) 17α-oestradiol exerts neuroprotective effect on SK-N-SH cells. J Neurosci. 17(2):511-515) SK-N-SH cells (passage 35) were obtained from ECACC. […] Cell viability was assessed 48h later. […] The dye (3mg/mL) is allowed to be taken up by the cells one hour at 37°C, 5% CO2, and is subsequently extracted by mixture of acetic acid and ethanol (1/[…]) and measured at 540 nm. […]

Q: How did the neuroblastoma cell death turn out when `CC(Oc1ccccc1)C(=O)N[C@@H]1C(=O)N2[C@@H]1SC(C)(C)[C@@H]2C(=O)O` (stereo partly drawn) [phenethicillin, (2S,5R,6R)-3,3-Dimethyl-7-oxo-6-[(1-oxo-2-phenoxypropyl)amino]-4-thia-1-azabicyclo[3.2.0]heptane-2-carboxylic acid] was run?
A: The neuroblastoma cell death was “significantly delayed neuroblastoma cell death”.
